Our source for the inhibition values is patent US9963463B2, “Urea-substituted indanes as P38 map kinase inhibitors” (TORRENT PHARMACEUTICALS LIMITED, priority 2014, dated 2018).

The term inhibition denotes the share of the control response that was lost under treatment.

T1 sequence (Q16539 whole entry): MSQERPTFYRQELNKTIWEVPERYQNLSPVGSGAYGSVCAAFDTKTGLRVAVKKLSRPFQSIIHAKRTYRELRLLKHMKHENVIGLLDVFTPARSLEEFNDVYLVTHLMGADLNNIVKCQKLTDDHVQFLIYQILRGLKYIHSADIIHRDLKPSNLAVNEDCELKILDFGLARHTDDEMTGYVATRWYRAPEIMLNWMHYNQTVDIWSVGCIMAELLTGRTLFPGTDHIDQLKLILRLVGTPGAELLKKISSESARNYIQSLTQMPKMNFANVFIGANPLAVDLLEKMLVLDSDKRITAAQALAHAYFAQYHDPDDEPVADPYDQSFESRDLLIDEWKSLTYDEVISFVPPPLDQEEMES

This assay addresses T1, purified recombinant human p38 alpha MAPK (Homo sapiens, UniProt Q16539).
T1 construct: purchased Millipore, USA
Kind of assay: Inhibition of p38 alpha MAPK activity, TR-FRET kinase assay. The class given is biochemical. Particulars: Concentration 1 μM; read-out: P38α Inhibition. The protocol:
Inhibition of p38 Alpha MAPK Activity: Time-Resolved Fluorescence Resonance Energy Transfer Kinase Standard Assay (TR-FRET Assay)
Compounds of present invention at various concentrations were premixed with DMSO. The experiment was initiated by mixing 0.5%-1.0% DMSO as vehicle/compounds with purified recombinant human p38 alpha MAPK (Millipore, USA) in the wells and 15 min incubation at room temperature. Thereafter, 30 nM of Biotinylated GST-ATF2 (Activation transcription Factor2) and 100 μM of ATP were added in to the wells containing reaction mixture, followed by reincubation for 60 minutes at RT. Reaction was terminated by addition of 10 mM of EDTA and detection reagent containing anti-phosphotheronine ATF2 antibody (PerkinElmer®, USA) labeled with europium chelate and APC (Allophycocyanin) labeled streptavidin, into the reaction mixture which was further incubated for 60 minutes at room temperature. The degree of phosphorylation of the substrate (GST-ATF2) was measured using Envision multimode reader (PerkinElmer®). Percentage inhibition of p38 kinase activity was calculated by determining ratio of specific europium 665 nm energy transfer signal to reference 615 nm signal.
A general note: In TR-FRET formats the signal depends on donor and acceptor labels being close together.
Turning to `Cc1ccc(-n2nc(C(C)(C)C)cc2NC(=O)Nc2ccc(OCC(=O)N3CCn4c(nnc4C(F)(F)F)C3)c3c2CCC3)cc1` [Compound 1, 1-[3-tert-butyl-1-(4-methylphenyl)-1H-pyrazol-5-yl]-3-(7-{2-oxo-2-[3-(trifluoromethyl)-5,6-dihydro[1,2,4]triazolo[4,3-a]pyrazin-7(8H)-yl]ethoxy}-2,3-dihydro-1H-inden-4-yl)urea], the inhibition at 1 µM was 80 to 100%.
As for `CC(C)(C)c1ccc(-n2nc(C(C)(C)C)cc2NC(=O)Nc2ccc(OCC(=O)N3CCn4c(nnc4C(F)(F)F)C3)c3c2CCC3)cc1` [Compound 2, 1-[3-tert-butyl-1-(4-tert-butylphenyl)-1H-pyrazol-5-yl]-3-(7-{2-oxo-2-[3-(trifluoromethyl)-5,6-dihydro[1,2,4]triazolo[4,3-a]pyrazin-7(8H)-yl]ethoxy}-2,3-dihydro-1H-inden-4-yl)urea], the inhibition at 1 µM was in the range of 20 to 40%.
In the case of `CC(C)(C)c1cc(NC(=O)Nc2ccc(OCC(=O)N3CCn4c(nnc4C(F)(F)F)C3)c3c2CCC3)n(-c2ccc(C3CCCCC3)cc2)n1` [Compound 3, 1-[3-tert-butyl-1-(4-cyclohexylphenyl)-1H-pyrazol-5-yl]-3-(7-{2-oxo-2-[3-(trifluoromethyl)-5,6-dihydro[1,2,4]triazolo[4,3-a]pyrazin-7(8H)-yl]ethoxy}-2,3-dihydro-1H-inden-4-yl)urea], the inhibition at 1 µM was 20 to 40%.
For `CC(C)(C)c1cc(NC(=O)Nc2ccc(OCC(=O)N3CCn4c(nnc4C(F)(F)F)C3)c3c2CCC3)n(-c2ccccc2)n1` [Compound 4, 1-(3-tert-butyl-1-phenyl-1H-pyrazol-5-yl)-3-(7-{2-oxo-2-[3-(trifluoromethyl)-5,6-dihydro[1,2,4]triazolo[4,3-a]pyrazin-7(8H)-yl]ethoxy}-2,3-dihydro-1H-inden-4-yl)urea], the inhibition at 1 µM was 60 to 80%.
On to `COc1ccccc1-c1nnc2n1CCN(C(=O)COc1ccc(NC(=O)Nc3cc(C(C)(C)C)nn3-c3ccccc3)c3c1CCC3)C2` [Compound 5, 1-(3-tert-butyl-1-phenyl-1H-pyrazol-5-yl)-3-(7-{2-[3-(2-methoxyphenyl)-5,6-dihydro[1,2,4]triazolo[4,3-a]pyrazin-7(8H)-yl]-2-oxoethoxy}-2,3-dihydro-1H-inden-4-yl)urea], for which the inhibition at 1 µM was 80 to 100%.
As for `Cc1ccc(-n2nc(C(C)(C)C)cc2NC(=O)Nc2ccc(OCCN3CCN(CCO)C(=O)C3)c3c2CCC3)cc1` [Compound 6, 1-[3-tert-butyl-1-(4-methylphenyl)-1H-pyrazol-5-yl]-3-(7-{2-[4-(2-hydroxyethyl)-3-oxopiperazin-1-yl]ethoxy}-2,3-dihydro-1H-inden-4-yl)urea], the inhibition at 1 µM is 80 to 100%.
As to `CSc1ccccc1-c1nnc2n1CCN(C(=O)COc1ccc(NC(=O)Nc3cc(C(C)(C)C)nn3-c3ccccc3)c3c1CCC3)C2` [Compound 7, 1-(3-tert-butyl-1-phenyl-1H-pyrazol-5-yl)-3-[7-(2-{3-[2-(methylsulfanyl)phenyl]-5,6-dihydro[1,2,4]triazolo[4,3-a]pyrazin-7(8H)-yl}-2-oxoethoxy)-2,3-dihydro-1H-inden-4-yl]urea], the inhibition at 1 µM was in the range of 80 to 100%.
To `COc1ccccc1-c1nnc2n1CCN(C(=O)COc1ccc(NC(=O)Nc3cc(C(C)(C)C)nn3-c3ccc(O)c(Cl)c3)c3c1CCC3)C2` [Compound 8, 1-[3-tert-butyl-1-(3-chloro-4-hydroxyphenyl)-1H-pyrazol-5-yl]-3-(7-{2-[3-(2-methoxyphenyl)-5,6-dihydro[1,2,4]triazolo[4,3-a]pyrazin-7(8H)-yl]-2-oxoethoxy}-2,3-dihydro-1H-inden-4-yl)urea] belongs 80 to 100%; to `CSc1ccccc1-c1nnc2n1CCN(C(=O)COc1ccc(NC(=O)Nc3cc(C(C)(C)C)nn3-c3ccc(O)c(Cl)c3)c3c1CCC3)C2` [Compound 9, 1-[3-tert-butyl-1-(3-chloro-4-hydroxyphenyl)-1H-pyrazol-5-yl]-3-[7-(2-{3-[2-(methylsulfanyl)phenyl]-5,6-dihydro[1,2,4]triazolo[4,3-a]pyrazin-7(8H)-yl}-2-oxoethoxy)-2,3-dihydro-1H-inden-4-yl]urea], 80 to 100%.
To `CSc1ccccc1-c1nnc2n1CCN(C(=O)COc1ccc(NC(=O)Nc3cc(C(C)(C)C)nn3-c3ccc(C)cc3)c3c1CCC3)C2` [Compound 10, 1-[3-tert-butyl-1-(4-methylphenyl)-1H-pyrazol-5-yl]-3-[7-(2-{3-[2-(methylsulfanyl)phenyl]-5,6-dihydro[1,2,4]triazolo[4,3-a]pyrazin-7(8H)-yl}-2-oxoethoxy)-2,3-dihydro-1H-inden-4-yl]urea] belongs 80 to 100%.
On to `CC(C)(C)c1cc(NC(=O)Nc2ccc(OCC(=O)N3CCn4c(nnc4-c4ccccc4SCCN4CCOCC4)C3)c3c2CCC3)n(-c2ccccc2)n1` [Compound 11, 1-(3-tert-butyl-1-phenyl-1H-pyrazol-5-yl)-3-(7-(2-[3-(2-{[2(morpholin-4-yl)ethyl]sulfanyl}phenyl)-5,6-dihydro[1,2,4]triazolo[4,3-a]pyrazin-7(8H)-yl]-2-oxoethoxy}-2,3-dihydro-1H-inden-4-yl)urea], for which the inhibition at 1 µM fell in the range of 80 to 100%.
`CSc1ccccc1-c1nnc2n1CCN(CCOc1ccc(NC(=O)Nc3cc(C(C)(C)C)nn3-c3ccc(C)cc3)c3c1CCC3)C2` [Compound 13, 1-[3-tert-butyl-1-(4-methylphenyl)-1H-pyrazol-5-yl]-3-[7-(2-{3-[2-(methylsulfanyl)phenyl]-5,6-dihydro[1,2,4]triazolo[4,3-a]pyrazin-7(8H)-yl}ethoxy)-2,3-dihydro-1H-inden-4-yl]urea]: the inhibition at 1 µM lay within 80 to 100%.
The same measure for `COc1ccccc1-c1nnc2n1CCN(CCOc1ccc(NC(=O)Nc3cc(C(C)(C)C)nn3-c3ccc(C)cc3)c3c1CCC3)C2` [Compound 14, 1-[3-tert-butyl-1-(4-methylphenyl)-1H-pyrazol-5-yl]-3-(7-{2-[3-(2-methoxyphenyl)-5,6-dihydro[1,2,4]triazolo[4,3-a]pyrazin-7(8H)-yl]ethoxy}-2,3-dihydro-1H-inden-4-yl)urea]: 80 to 100%; for `Cc1ccc(-n2nc(C(C)(C)C)cc2NC(=O)Nc2ccc(OCCN3CCn4c(nnc4-c4ccccc4O)C3)c3c2CCC3)cc1` [Compound 15, 1-[3-tert-butyl-1-(4-methylphenyl)-1H-pyrazol-5-yl]-3-(7-{2-[3-(2-hydroxyphenyl)-5,6-dihydro[1,2,4]triazolo[4,3-a]pyrazin-7(8H)-yl]ethoxy}-2,3-dihydro-1H-inden-4-yl)urea]: 80 to 100%.
To `Cc1ccc(-n2nc(C(C)(C)C)cc2NC(=O)Nc2ccc(OCCN3CCN(Cc4ccccc4)C(=O)C3)c3c2CCC3)cc1` [Compound 16, 1-{7-[2-(4-benzyl-3-oxopiperazin-1-yl)ethoxy]-2,3-dihydro-1H-inden-4-yl}-3-[3-tert-butyl-1-(4-methylphenyl)-1H-pyrazol-5-yl]urea] belongs 80 to 100%.
`COc1ccc(-n2nc(C(C)(C)C)cc2NC(=O)Nc2ccc(OCCN3CCN(CC4CC4)C(=O)C3)c3c2CCC3)cc1` [Compound 17, 1-[3-tert-butyl-1-(4-methoxyphenyl)-1H-pyrazol-5-yl]-3-(7-{2-[4-(cyclopropylmethyl)-3-oxopiperazin-1-yl]ethoxy}-2,3-dihydro-1H-inden-4-yl)urea]: the inhibition at 1 µM was 60 to 80%.
The same measure for `CC(C)(C)c1cc(NC(=O)Nc2ccc(OCCN3CCN(CC4CC4)C(=O)C3)c3c2CCC3)n(-c2ccc(O)cc2)n1` [Compound 18, 1-[3-tert-butyl-1-(4-hydroxyphenyl)-1H-pyrazol-5-yl]-3-(7-{2-[4-(cyclopropylmethyl)-3-oxopiperazin-1-yl]ethoxy}-2,3-dihydro-1H-inden-4-yl)urea]: 80 to 100%; for `Cc1ccc(-n2nc(C(C)(C)C)cc2NC(=O)Nc2ccc(OCCN3CCN(c4ccccc4)C(=O)C3)c3c2CCC3)cc1` [Compound 19, 1-[3-tert-butyl-1-(4-methylphenyl)-1H-pyrazol-5-yl]-3-{7-[2-(3-oxo-4-phenylpiperazin-1-yl)ethoxy]-2,3-dihydro-1H-inden-4-yl}urea]: 80 to 100%; for `Cc1ccc(-n2nc(C(C)(C)C)cc2NC(=O)Nc2ccc(OCCN3CCn4c(nnc4-c4ccccc4OCCN4CCOCC4)C3)c3c2CCC3)cc1` [Compound 20, 1-[3-tert-butyl-1-(4-methylphenyl)-1H-pyrazol-5-yl]-3-(7-{2-[3-{2-[2-(morpholin-4-yl)ethoxy]phenyl}-5,6-dihydro[1,2,4]triazolo[4,3-a]pyrazin-7(8H)-yl]ethoxy}-2,3-dihydro-1H-inden-4-yl)urea]: 80 to 100%.
Turning to `Cc1ccc(-n2nc(C(C)(C)C)cc2NC(=O)Nc2ccc(OCCN3CCN(CC4CCCC4)C(=O)C3)c3c2CCC3)cc1` [Compound 21, 1-[3-tert-butyl-1-(4-methylphenyl)-1H-pyrazol-5-yl]-3-(7-{2-[4-(cyclopentylmethyl)-3-oxopiperazin-1-yl]ethoxy}-2,3-dihydro-1H-inden-4-yl)urea], the inhibition at 1 µM lay within 80 to 100%.
On to `Cc1ccc(-n2nc(C(C)(C)C)cc2NC(=O)Nc2ccc(OCCN3CCN(CC4CCC4)C(=O)C3)c3c2CCC3)cc1` [Compound 22, 1-[3-tert-butyl-1-(4-methylphenyl)-1H-pyrazol-5-yl]-3-(7-{2-[4-(cyclobutylmethyl)-3-oxopiperazin-1-yl]ethoxy}-2,3-dihydro-1H-inden-4-yl)urea], for which the inhibition at 1 µM lay in the range of 80 to 100%.
